# Measurements: US20240246934A1, “QUINAZOLINE-BASED COMPOUND, COMPOSITION, AND APPLICATION OF QUINAZOLINE-BASED COMPOUND” (BEIJING SCITECH-MQ PHARMACEUTICALS LIMITED, priority 2021, published 2024)
# Read-outs that look alike come from different tables or passages of the source.
# Key:
# [1] = molecular target: Ba/F3 HER2 A775_G776insYVMA cells (Homo sapiens, UniProt P04626, DUP772-775, cells depend on it); test: Inhibition of cell proliferation, CTG method, Ba/F3 HER2 A775_G776insYVMA; assay type: cell-based
# Procedure, shortened: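 Ba/F3 HER2 A775_G776insYVMA cells in RPMI1640 with 10% FBS were plated at 3000 cells/well and treated directly with compound (top 10 μM, 4-fold, 9 concentrations, duplicates).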
# [2] = molecular target: Ba/F3 EGFR D770_N771insSVD cells (Homo sapiens, UniProt P00533, DUP768-770, cells depend on it); test: Inhibition of cell proliferation, CTG method, Ba/F3 EGFR D770_N771insSVD; assay type: cell-based; settings: 72 hours, read-out: Ba/F3 EGFR D770_N771insSVD IC50
# Text: The present application examined the in vitro anti-proliferative activity of the compounds of the present disclosure against in vitro cultured BT474, NCI-N87, Ba/F3-EGFR-VIII and Ba/F3 HER2 A775_G776insYVMA and Ba/F3 EGFR D770_N771insSVD cell lines by CTG method.
# Reagents and consumables: RPMI1640 (ThermoFisher, Cat. No. C11875500BT); fetal bovine serum (Hyclone, Cat. No. SV30087.03); 0.25% trypsin-EDTA (ThermoFisher, Cat. No. 25200-072); penicillin-streptomycin (Hyclone, Cat. No. SV30010); DMSO (Amresco, Cat. No. 0231-500ML); CTG assay kit (Promega, Cat. No. G924C); 96-well plate (Corning, Cat. No. 3603); multifunctional plate reader (Perkin Elmer, Cat. No. Envision)
# Cell lines: BT474 (from the cell bank of Chinese Academy of Sciences), NCI-N87 (from ATCC), Ba/F3-EGFR-VIII, Ba/F3 HER2 A775_G776insYVMA and Ba/F3 EGFR D770_N771insSVD (all from KYinno Biotechnology (Beijing) Co., Ltd.); all of the above cells were cultured with RPMI1640 medium containing 10% fetal bovine serum, 100 U/mL penicillin, and 100 μg/mL streptomycin in the culture process.
# 1. The assay compound was dissolved with DMSO to form a stock solution and a gradient dilution was performed, followed by dilution with the corresponding medium to obtain a solution with 5-fold working concentration.
# 2. Cells in logarithmic growth phase were adjusted to specific cell densities by dilution with culture medium, and 80 μL of cell suspension was added to a 96-well plate, such that plating densities of cells of BT474, NCI-N87, Ba/F3-EGFR-VIII, Ba/F3 HER2 A775_G776insYVMA and Ba/F3 EGFR D770_N771insSVD were all 3000 cells/well. The cells of Ba/F3-EGFR-VIII, Ba/F3 HER2 A775_G776insYVMA and Ba/F3 EGFR D770_N771insSVD were used directly in the next step (treatment with compound), whereas the BT474 and NCI-N87 needed to be cultured overnight in a 37° C., 5% carbon dioxide gas incubator to adhere to the wall, and then treated with compounds.
# 3. 20 μL of compound solution was added to each well of the 96-well plate that had been inoculated with cells. The highest concentration of the assayed compound was 10 μM, 4-fold serial dilution, a total of 9 concentrations, and duplicate wells. A control group without compound was also set up.
# 4. The cells were cultured for another 72 hours, and then cell viability was detected by CTG assay kit. Signal values were read with a multifunctional plate reader (Perkin Elmer). GraphPad Prism software was used to create a dose-response curve and IC50 was calculated.
# EGFR^WT kinase = EGFR^WT kinase (Homo sapiens, UniProt P00533); test: EGFR^WT kinase assay (ULight/PT66 TR-FRET); assay type: biochemical
# Procedure, shortened: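 Enzyme preincubated 5 min with compound (11-point 3-fold series, duplicate), then ULight-JAK-1 (Tyr1023) peptide and ATP added at 4× stocks of 400 nM and 600 μM; 120 min reaction at room temperature. PT66 antibody TR-FRET read after 60 min; IC50 fitted from inhibition rates.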
# HER2 kinase = molecular target: T1, HER2 kinase (Homo sapiens, UniProt P04626); test: HER2 kinase assay (ULight/PT66 TR-FRET); assay type: biochemical
# T1 construct: purchased Carna Biosciences 08-016
# Procedure, shortened: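 HER2 kinase preincubated 5 min with compounds (11-point 3-fold series, duplicates), then reacted 120 min at room temperature with ATP and ULight-poly GT peptide, each prepared at 4× working concentration (40 μM ATP, 400 nM substrate, 40 nM kinase). PT66 antibody added for 60 min, TR-FRET read; IC50 from inhibition curves.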
# [3] = test system: Ba/F3 ERBB2 A775_G776insYVMA; test: Efficacy in nude mouse tumor-bearing model of Ba/F3 ERBB2 A775_G776insYVMA; assay type: in vivo, BALB/c nude mice
# Method: In this assay, some compounds of the application were orally administered to a nude mouse tumor-bearing model of Ba/F3 ERBB2 A775_G776insYVMA to study the effect of the compounds of the application on tumor growth.
# Preparation of the assay compound: an appropriate weight of the compound to be assayed was weighed, and completely dissolved in an appropriate volume of vehicle (DMSO). The mixture was vortexed or sonicated. Then an appropriate amount of Solutol was added and mixed well. Finally, sterilized drinking water was added and the mixture was mixed by stirring or vortexing to obtain a homogeneous solution or suspension.
# Method: All the assays were authorized and agreed by the Animal Welfare Committee. Ba/F3 ERBB2 A775_G776insYVMA in a logarithmic growth period was inoculated subcutaneously into the right back of immunodeficient nude mice (BALB/c nude, female, 6-7 weeks of age, body weight 18±2 g) with 4×10^6 cells/rat. After the tumor grew to 150-200 mm^3, the animals were randomly divided into a treatment group and a control group. For the treatment group, a solution of each assay compound was given, and for the control group, a vehicle solution without the assay compound was given. Both of the treatment group and the control group were administered once a day for about 2 weeks. The dose of each assay article was 30 mg/kg (in terms of effective compound concentration), and the assay compounds were all prepared freshly for use. During the assay, the diameter of loaded tumors was measured twice a week, and the mice were weighed at the same time. The tumor volume (TV) was calculated by the formula: TV=½×a×b^2, where a and b denote length and width, respectively. Relative tumor volume (RTV) was calculated based on the measured results by the formula: RTV=Vt/V0, where V0 is the tumor volume measured at grouping and administration and Vt is the tumor volume at each measurement. The evaluation index of antitumor activity was the relative tumor proliferation rate T/C (%) calculated by the formula: T/C (%)=(TRTV/CRTV)×100%, TRTV: RTV of the administration group; CRTV: RTV of the control group. T and C denote the average tumor volume at a certain time point in the administration group and the control group, respectively.
# [4] = Brain tissue and whole blood concentration in SD rats after oral administration; assay type: in vivo; settings: rat, PO 10 mg/kg, 2 h after administration
# Method: In this assay, the pharmacokinetic characteristics of the compounds of the present application were assayed after administration of some of the compounds of the present application to SD rats by single oral administration and intravenous injection.
# 2. […] The mixture was stirred, vortexed and/or sonicated. Once a solution was obtained, the vehicle was gradually added to a final volume to reach the target concentration. The solution was vortexed, and sonicated to obtain a homogeneous solution.
# Meanwhile, the IV group was not fasted and the PO group was fasted overnight (>12 hrs) and given food 2 hrs after drug administration. All animals had free access to water. The dosing regimen and pharmacokinetic sampling regimen are given in Table 6 and Table 7 below, respectively.
# Rats were administered according to the above regimen, and blood and brain tissue samples were collected and processed at predetermined time points (collection and processing were performed according to conventional methods in the art).
# The supernatant was diluted 2-fold with ultra-pure water, and the samples were analyzed by LC/MS.
# Brain tissues were weighed and homogenized by adding 4-fold homogenizing solution (acetonitrile/water=1/1 v/v). […] The supernatant was diluted 2-fold with ultra-pure water, and the samples were analyzed by LC/MS.
# [5] = Pharmacokinetics in SD rats, single intravenous injection and oral administration; assay type: in vivo, SD rat
# Method: In this assay, the pharmacokinetic characteristics of the compounds of the present application were assayed after administration of some of the compounds of the present application to SD rats by single oral administration and intravenous injection. 1. […] The mixture was stirred, vortexed and/or sonicated. Once a solution was obtained, the vehicle was gradually added to a final volume to reach the target concentration. The solution was vortexed, and sonicated to obtain a homogeneous solution. The solution was filtered through a 0.22 μm PVDF membrane. 2. […] The mixture was stirred, vortexed and/or sonicated. Once a solution was obtained, the vehicle was gradually added to a final volume to reach the target concentration. The solution was vortexed, and sonicated to obtain a homogeneous solution. […] Meanwhile, the IV group was not fasted and the PO group was fasted overnight (>12 hrs) and given food 2 hrs after drug administration. All animals had free access to water. The dosing regimen and pharmacokinetic sampling regimen are given in Table 6 and Table 7 below, respectively. […] Rats were administered according to the above regimen, and blood and brain tissue samples were collected and processed at predetermined time points (collection and processing were performed according to conventional methods in the art). […] The supernatant was diluted 2-fold with ultra-pure water, and the samples were analyzed by LC/MS. Pharmacokinetic parameters was calculated using WinNonlin software. The following pharmacokinetic parameters was calculated from the plasma drug concentration-time data: CL (clearance); Vd (apparent volume of distribution); T1/2 (elimination half-life time); Cmax (peak concentration); Tmax (time to peak); AUC (area under plasma drug concentration-time curve); MRT (mean retention time); F % (bioavailability).
# [6] = 72 hours, read-out: Ba/F3 HER2 A775-G776insYVMA IC50
# [7] = SD, rat, in vivo, PO 10 mg/kg, NA: Exposure was too low to be counted
# [8] = SD, rat, whole blood, IV 3 mg/kg
# EGFR^WT kinase, sequence (P00533 25-1210): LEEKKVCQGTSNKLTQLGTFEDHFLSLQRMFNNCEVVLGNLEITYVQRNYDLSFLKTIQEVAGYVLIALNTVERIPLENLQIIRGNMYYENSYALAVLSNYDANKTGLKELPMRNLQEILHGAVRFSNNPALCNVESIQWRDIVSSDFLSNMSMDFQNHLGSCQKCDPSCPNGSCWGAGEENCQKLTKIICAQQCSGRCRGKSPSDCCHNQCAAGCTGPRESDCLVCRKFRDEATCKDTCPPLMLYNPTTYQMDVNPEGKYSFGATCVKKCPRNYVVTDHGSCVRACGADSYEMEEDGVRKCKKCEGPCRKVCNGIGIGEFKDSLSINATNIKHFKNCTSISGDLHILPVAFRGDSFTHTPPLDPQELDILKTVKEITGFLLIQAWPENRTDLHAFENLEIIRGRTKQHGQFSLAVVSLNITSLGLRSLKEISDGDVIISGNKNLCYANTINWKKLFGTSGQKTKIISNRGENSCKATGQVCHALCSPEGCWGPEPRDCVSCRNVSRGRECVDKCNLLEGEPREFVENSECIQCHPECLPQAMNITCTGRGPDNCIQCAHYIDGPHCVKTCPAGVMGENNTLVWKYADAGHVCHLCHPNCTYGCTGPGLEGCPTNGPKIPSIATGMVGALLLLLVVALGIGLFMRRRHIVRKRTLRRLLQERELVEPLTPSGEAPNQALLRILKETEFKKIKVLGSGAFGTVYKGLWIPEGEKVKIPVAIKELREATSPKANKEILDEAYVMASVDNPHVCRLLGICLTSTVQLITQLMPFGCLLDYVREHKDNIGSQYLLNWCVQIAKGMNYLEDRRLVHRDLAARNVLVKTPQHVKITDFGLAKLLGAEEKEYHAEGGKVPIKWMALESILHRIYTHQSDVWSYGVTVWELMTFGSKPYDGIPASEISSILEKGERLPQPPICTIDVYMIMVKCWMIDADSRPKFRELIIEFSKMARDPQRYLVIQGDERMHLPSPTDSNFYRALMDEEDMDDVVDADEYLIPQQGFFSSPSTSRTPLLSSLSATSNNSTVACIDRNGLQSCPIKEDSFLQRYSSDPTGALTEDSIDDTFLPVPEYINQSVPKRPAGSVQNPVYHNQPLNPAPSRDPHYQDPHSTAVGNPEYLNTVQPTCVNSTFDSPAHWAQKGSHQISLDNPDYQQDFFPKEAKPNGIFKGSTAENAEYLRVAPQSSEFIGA
# Ba/F3 EGFR D770_N771insSVD cells, sequence (P00533 with tags, fused parts or gaps DUP768-770): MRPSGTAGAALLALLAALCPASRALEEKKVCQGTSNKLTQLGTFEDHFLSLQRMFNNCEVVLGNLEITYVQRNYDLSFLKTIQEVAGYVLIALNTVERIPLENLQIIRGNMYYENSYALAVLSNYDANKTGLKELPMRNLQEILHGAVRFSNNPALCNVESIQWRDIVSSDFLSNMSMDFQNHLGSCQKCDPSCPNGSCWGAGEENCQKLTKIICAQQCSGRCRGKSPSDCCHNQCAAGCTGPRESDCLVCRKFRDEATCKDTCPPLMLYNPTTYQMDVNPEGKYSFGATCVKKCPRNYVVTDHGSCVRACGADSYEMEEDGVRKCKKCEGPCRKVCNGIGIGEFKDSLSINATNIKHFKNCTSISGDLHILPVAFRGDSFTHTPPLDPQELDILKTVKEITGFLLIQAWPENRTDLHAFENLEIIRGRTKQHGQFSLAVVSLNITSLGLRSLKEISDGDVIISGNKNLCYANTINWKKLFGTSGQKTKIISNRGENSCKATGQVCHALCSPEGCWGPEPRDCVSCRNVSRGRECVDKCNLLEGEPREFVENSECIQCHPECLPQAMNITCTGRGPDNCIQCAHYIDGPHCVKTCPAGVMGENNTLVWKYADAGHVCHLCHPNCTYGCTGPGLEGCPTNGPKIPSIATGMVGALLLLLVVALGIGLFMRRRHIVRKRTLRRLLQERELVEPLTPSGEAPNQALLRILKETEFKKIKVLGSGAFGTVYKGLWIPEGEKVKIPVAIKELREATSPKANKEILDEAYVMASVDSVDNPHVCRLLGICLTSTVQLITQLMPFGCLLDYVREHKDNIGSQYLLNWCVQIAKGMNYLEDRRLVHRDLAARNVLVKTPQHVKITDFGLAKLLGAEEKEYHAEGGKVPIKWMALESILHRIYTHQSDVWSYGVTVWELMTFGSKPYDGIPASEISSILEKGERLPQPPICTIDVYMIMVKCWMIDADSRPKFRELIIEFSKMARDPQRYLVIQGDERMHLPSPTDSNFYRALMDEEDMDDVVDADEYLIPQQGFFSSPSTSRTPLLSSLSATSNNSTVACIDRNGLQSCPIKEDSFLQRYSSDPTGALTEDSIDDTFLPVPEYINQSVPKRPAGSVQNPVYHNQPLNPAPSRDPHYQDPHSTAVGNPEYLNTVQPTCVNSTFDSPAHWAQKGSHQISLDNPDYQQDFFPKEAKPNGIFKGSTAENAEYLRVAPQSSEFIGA
# T1 sequence (P04626 23-1255): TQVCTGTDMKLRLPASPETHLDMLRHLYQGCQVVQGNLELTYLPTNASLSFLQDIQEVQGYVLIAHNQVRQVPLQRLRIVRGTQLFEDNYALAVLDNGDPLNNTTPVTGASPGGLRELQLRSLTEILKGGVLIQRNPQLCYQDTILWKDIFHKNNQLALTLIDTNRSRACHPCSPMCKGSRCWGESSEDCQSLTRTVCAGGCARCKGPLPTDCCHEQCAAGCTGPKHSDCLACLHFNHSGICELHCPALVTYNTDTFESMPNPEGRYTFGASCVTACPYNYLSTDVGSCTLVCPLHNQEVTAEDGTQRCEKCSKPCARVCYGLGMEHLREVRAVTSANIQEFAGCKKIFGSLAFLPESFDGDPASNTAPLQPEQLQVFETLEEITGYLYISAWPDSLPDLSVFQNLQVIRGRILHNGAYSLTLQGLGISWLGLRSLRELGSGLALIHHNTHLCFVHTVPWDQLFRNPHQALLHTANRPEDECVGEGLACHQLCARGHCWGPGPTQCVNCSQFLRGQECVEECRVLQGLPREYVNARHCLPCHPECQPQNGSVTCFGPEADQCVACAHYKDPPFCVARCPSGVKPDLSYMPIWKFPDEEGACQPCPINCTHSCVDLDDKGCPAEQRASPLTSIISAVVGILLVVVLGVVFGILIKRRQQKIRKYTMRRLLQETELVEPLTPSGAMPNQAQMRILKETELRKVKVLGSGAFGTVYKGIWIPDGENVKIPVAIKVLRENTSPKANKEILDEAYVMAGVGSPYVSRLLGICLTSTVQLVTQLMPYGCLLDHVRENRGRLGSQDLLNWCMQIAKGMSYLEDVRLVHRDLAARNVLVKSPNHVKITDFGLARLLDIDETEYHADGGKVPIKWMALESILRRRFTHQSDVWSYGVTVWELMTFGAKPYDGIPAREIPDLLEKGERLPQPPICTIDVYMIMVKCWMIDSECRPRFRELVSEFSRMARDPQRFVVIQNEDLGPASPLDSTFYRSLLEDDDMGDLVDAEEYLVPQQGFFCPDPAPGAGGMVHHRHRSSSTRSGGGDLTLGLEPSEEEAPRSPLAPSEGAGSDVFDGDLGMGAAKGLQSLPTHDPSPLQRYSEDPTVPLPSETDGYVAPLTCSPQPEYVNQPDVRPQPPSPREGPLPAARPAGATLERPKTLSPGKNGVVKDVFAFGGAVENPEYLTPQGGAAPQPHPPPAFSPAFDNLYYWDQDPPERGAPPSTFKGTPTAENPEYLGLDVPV
# Ba/F3 HER2 A775_G776insYVMA cells, sequence (P04626 with tags, fused parts or gaps DUP772-775): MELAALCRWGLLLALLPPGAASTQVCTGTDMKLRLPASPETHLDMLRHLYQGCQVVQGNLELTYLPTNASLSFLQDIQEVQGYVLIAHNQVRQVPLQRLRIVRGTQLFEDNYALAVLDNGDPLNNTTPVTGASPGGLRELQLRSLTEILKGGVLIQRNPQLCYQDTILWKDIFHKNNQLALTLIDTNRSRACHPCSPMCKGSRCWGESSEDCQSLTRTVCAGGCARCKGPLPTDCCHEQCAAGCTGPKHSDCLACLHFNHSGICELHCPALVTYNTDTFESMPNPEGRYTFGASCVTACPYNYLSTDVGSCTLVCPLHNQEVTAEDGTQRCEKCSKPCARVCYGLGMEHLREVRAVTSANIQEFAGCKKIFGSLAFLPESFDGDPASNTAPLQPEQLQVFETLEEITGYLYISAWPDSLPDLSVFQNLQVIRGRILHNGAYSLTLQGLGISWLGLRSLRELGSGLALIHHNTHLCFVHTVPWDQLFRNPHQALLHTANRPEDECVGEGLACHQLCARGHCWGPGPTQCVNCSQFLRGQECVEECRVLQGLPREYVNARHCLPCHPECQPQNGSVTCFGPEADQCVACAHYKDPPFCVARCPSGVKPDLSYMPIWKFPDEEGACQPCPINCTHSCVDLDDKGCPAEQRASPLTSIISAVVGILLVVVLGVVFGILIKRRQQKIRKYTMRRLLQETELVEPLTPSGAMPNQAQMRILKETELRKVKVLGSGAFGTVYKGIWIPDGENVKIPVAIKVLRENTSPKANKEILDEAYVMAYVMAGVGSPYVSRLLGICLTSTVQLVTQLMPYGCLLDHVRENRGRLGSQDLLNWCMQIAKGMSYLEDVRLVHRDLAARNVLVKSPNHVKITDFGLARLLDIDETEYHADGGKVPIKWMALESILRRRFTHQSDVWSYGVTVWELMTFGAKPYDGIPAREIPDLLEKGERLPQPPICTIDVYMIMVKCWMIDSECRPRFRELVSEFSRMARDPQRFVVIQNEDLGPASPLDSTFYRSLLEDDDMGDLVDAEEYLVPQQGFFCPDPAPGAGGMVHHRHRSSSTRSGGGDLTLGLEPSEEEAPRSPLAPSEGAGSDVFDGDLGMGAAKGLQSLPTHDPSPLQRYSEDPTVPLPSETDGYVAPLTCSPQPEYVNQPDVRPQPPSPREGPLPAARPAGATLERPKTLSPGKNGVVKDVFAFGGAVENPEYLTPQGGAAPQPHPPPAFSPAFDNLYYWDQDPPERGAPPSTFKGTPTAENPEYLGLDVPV
"GI50 [1, 6] [nM]",GI50 [2] [nM],IC50 (EGFR^WT kinase) [nM],IC50 (HER2 kinase) [nM],Compound,effect on tumor size (in words) ([3]; 30 mg/kg PO),"T/C (%) ([3]; 30 mg/kg, QD×14, PO, day 14)","GI50 ([1]; read-out: Ba/F3 HER2 A775-G776insYVMA IC50, 72 hours) [nM]","concentration at 2 h ([4]; whole blood, read-out: Blood drug concentration) [ng/mL]","Kp at 2 h ([4]; brain / whole blood, read-out: Brain tissue/blood ratio)","concentration at 2 h ([4]; brain, NA: Exposure was too low to be counted, read-out: Brain tissue concentration) [ng/g]",Cl_obs ([5]; IV 3 mg/kg) [mL/min/kg],"AUC(0-t) ([5]; SD, rat, in vivo, IV 3 mg/kg) [ng·h/mL]","half-life ([5]; SD, rat, in vivo, IV 3 mg/kg) [h]","AUC(0-t) [5, 7] [ng·h/mL]","Cmax [5, 7] [ng/mL]","half-life [5, 7] [h]","AUC(0-inf) [5, 8] [ng·h/mL]","Vd [5, 8] [L/kg]","bioavailability ([5]; SD, rat, whole blood, PO 10 mg/kg vs IV 3 mg/kg, NA: Exposure was too low to be counted, read-out: F % (bioavailability)) [%]","AUC(0-inf) ([5]; SD, rat, whole blood, PO 10 mg/kg, NA: Exposure was too low to be counted) [ng·h/mL]"
1 to 5,10 to 100,10 to 100,< 10,COCCN1CCC[C@@H]1/C=C/C(=O)Nc1ccc2ncnc(Nc3ccc(OCc4cccc(F)c4)c(Cl)c3)c2c1OC [Example 26],,,,,,,,,,,,,,,,
1 to 5,5 to 10,< 10,< 10,"CN1CCC[C@@H]1/C=C/C(=O)Nc1ccc2ncnc(Nc3ccc(OCc4ccccn4)c(Cl)c3)c2c1OCCO [Example 6, (R,E)-N-(4-((3-chloro-4-(pyridin-2-ylmethoxy)phenyl)amino)-5-(2-hydroxyethoxy)quinazolin-6-yl)-3-(1-methylpyrrolidin-2-yl)acrylamide]",,,,,,,,,,,,,,,,
1 to 5,10 to 100,< 10,< 10,"CN1CCC[C@@H]1/C=C/C(=O)Nc1ccc2ncnc(Nc3ccc(OCc4ccccn4)c(Cl)c3)c2c1OCCCO [Example 17, (R,E)-N-(4-((3-chloro-4-(pyridin-2-ylmethoxy)phenyl)amino)-5-(3-hydroxypropoxy)quinazolin-6-yl)-3-(1-methylpyrrolidin-2-yl)acrylamide]",,,,,,,,,,,,,,,,
,,,,"CCOc1cc2ncc(C#N)c(Nc3ccc(OCc4ccccn4)c(Cl)c3)c2cc1NC(=O)/C=C/CN(C)C [NERATINIB, neratinib, reference compound]",still remain significant growth,45.9,10 to 100,440,0.0366,14.4,20.8 ± 2.0,2390 ± 267,4.38 ± 0.55,1470 ± 637,201 ± 66,2.97 ± 0.27,2420 ± 252,7.94 ± 1.71,18.2 ± 7.89,1470 ± 638
